# Structures can show the parent of a compound that is named as a salt. Calls of active or inactive are those of the source. The calls are words filed in the database; no cut-off is given here.
# Experiments:
# Sporosarcina pasteurii [1] = experiment: Competitive inhibition of Sporosarcina pasteurii CCM 2056 urease assessed as reduction in ammonia production preincubated with enzyme followed by addition of varying levels of urea as substrate measured for 120 mins by Lineweaver-Burk plot analysis
# [2] = Inhibition of Sporosarcina pasteurii CCM 2056 urease assessed as reduction in ammonia production using urea as substrate measured for 120 mins by phenol-hypochlorite method
# Sporosarcina pasteurii [3] = experiment: Reversible inhibition of Sporosarcina pasteurii CCM 2056 urease assessed as reduction in ammonia production by measuring recovery of enzyme activity at 10 times IC50 preincubated for 60 mins followed by 100-fold dilution in to PBS containing urea as substrate by Berthelot colorimetric assay relative to control; design: Activity: scale not given: the % may be the effect or the level left
# [4] = Inhibition of Sporosarcina pasteurii CCM 2056 urease assessed as reduction in ammonia production by measuring initial state enzyme-inhibitor complex using urea as substrate measured for 120 mins by phenol-hypochlorite method
# [5] = Inhibition of Sporosarcina pasteurii CCM 2056 urease assessed as reduction in ammonia production by measuring steady state enzyme-inhibitor complex using urea as substrate measured for 120 mins by phenol-hypochlorite method
# Sporosarcina pasteurii [6] = experiment: Time-dependent Sporosarcina pasteurii CCM 2056 urease assessed as reduction in ammonia production using urea as substrate by phenol-hypochlorite method
Compound,mode of inhibition (Sporosarcina pasteurii [1]),Ki ([2]; read-out: Ki),Activity (Sporosarcina pasteurii [3]),Ki ([4]; read-out: Ki),Ki ([5]; read-out: Ki),TDI (Sporosarcina pasteurii [6]),Ki [2],inhibition (Sporosarcina pasteurii [3]),Ki [4],Ki [5]
CC#CC(=O)OCC,Active,126 µM,47.3%,1270 µM,117 µM,Active,,,,
C=C=CC(=O)NCc1ccccc1,,,,,,,Not Active,inactive,Not Active,Not Active
CCOC(=O)C#Cc1ccccc1,Active,52.3 µM,44.7%,814 µM,47.1 µM,Active,,,,
CCOC(=O)/C=C/c1ccc(C)cc1,,,,,,,Not Active,inactive,Not Active,Not Active
O=C(O)/C=C/C1=CC(=O)CCC1,Active,17.8 µM,38.1%,189 µM,19.5 µM,Active,,,,
C=C=CC(=O)OCC,Active,2.52 µM,29.1%,162 µM,2.27 µM,Active,,,,
O=C(O)C#Cc1ccccc1,Active,37.1 µM,39.2%,584 µM,40.3 µM,Active,,,,
COC(=O)/C=C(\CC(=O)OC)C(=O)OC,Active,5.21 µM,31.5%,,,Active,,,,
C#CC(=O)O [PROPIOLIC ACID],Active,44.4 µM,40.9%,729 µM,43.5 µM,Active,,,,
CC(=O)/C=C/C1=CC(=O)CCC1,Active,21.2 µM,38.8%,205 µM,21.3 µM,Active,,,,
CCOC(=O)/C=C/C(=O)OCC,Active,11.1 µM,34.3%,21.7 µM,12 µM,Active,,,,
CCOC(=O)/C=C/c1ccc([N+](=O)[O-])cc1,Active,,,,,,Not Active,inactive,Not Active,Not Active
N#C/C=C/C1=CC(=O)CCC1,Active,0.784 µM,27.2%,55.1 µM,0.931 µM,Active,,,,
CCC(C)OC(=O)/C=C/C(=O)OC(C)CC (stereo not drawn),Active,64.2 µM,46%,907 µM,59.2 µM,Active,,,,
O=C(O)/C=C\C(=O)O [MALEIC ACID],,,,,,,Not Active,inactive,Not Active,Not Active
C#CC(=O)OC,Active,46 µM,41.5%,804 µM,50.5 µM,Active,,,,
CCOC(=O)/C=C/C(=O)C(=O)OCC,Active,0.0928 µM,8.9%,32.8 µM,0.113 µM,Active,,,,
O=C1C=C(/C=C/C(=O)c2ccccc2)CCC1,Active,0.592 µM,21.5%,26.8 µM,0.493 µM,Active,,,,
CC#CC(=O)O,Active,109 µM,47.4%,1130 µM,97.5 µM,Active,,,,
O=C(O)/C=C(\CC(=O)O)C(=O)O [ACONITIC ACID],Active,6.13 µM,33.8%,,,Active,,,,
COC(=O)/C=C\C(=O)OC [DIMETHYL MALEATE],,,,,,,Not Active,inactive,Not Active,Not Active
